Results from the supplement of paper PMC13380429.

Key:
U2OS [1] = experiment: cell viability relative to DMSO; higher = less toxic; conditions: 72 h
Calu-3 [2] = experiment: as above; conditions: 72 h
HepG2 [3] = experiment: as above; conditions: 72 h
Vero E6 [4] = experiment: as above; conditions: 72 h
Calu-3 [5] = experiment: relative viability EC50 (midpoint between 100% and the lowest measured viability); higher = less toxic; conditions: 72 h
Vero E6 [6] = experiment: as above; conditions: 72 h
[7] = test system: A549-ACE2 infected with SARS-CoV-2; experiment: morphology score (similarity to uninfected cells); higher = more like uninfected cells; conditions: 24 h
[8] = test system: A549-ACE2 infected with SARS-CoV-2; experiment: SARS-CoV-2 infection rate relative to DMSO; higher = more infection; conditions: 24 h
U2OS [9] = experiment: drug sensitivity score (DSS) for viability; higher = more toxic; extreme values may be limits of the assay; conditions: 72 h
Calu-3 [10] = experiment: as above; conditions: 72 h
HepG2 [11] = experiment: as above; conditions: 72 h
Vero E6 [12] = experiment: as above; conditions: 72 h
[13] = test system: A549-ACE2 infected with SARS-CoV-2; experiment: cell count relative to DMSO; higher = less toxic; conditions: 24 h
Caco-2 [14] = experiment: cell viability relative to DMSO; higher = less toxic; conditions: 72 h
U2OS [15] = experiment: relative viability EC50 (midpoint between 100% and the lowest measured viability); higher = less toxic; conditions: 72 h
Caco-2 [16] = experiment: as above; conditions: 72 h
HepG2 [17] = experiment: as above; conditions: 72 h
Caco-2 [18] = experiment: drug sensitivity score (DSS) for viability; higher = more toxic; extreme values may be limits of the assay; conditions: 72 h

COc1ccc(C(=O)/C(Cc2cc(OC)c(OC)c(OC)c2)=C(\C(=O)O)c2ccc3c(c2)OCO3)cc1
Conditions | SARS-CoV-2 infection rate, [8] [%] | cell count, [13] [%] | cell viability, Calu-3 [2] [%] | cell viability, HepG2 [3] [%] | cell viability, U2OS [1] [%] | cell viability, Vero E6 [4] [%] | morphology score, [7]
1 nM | – | – | 91.9 | 102 | 98.9 | 97.1 | –
10 nM | – | – | 87.6 | 93.9 | 94.9 | 101 | –
100 nM | – | – | 101 | 95.3 | 97.7 | 104 | –
0.3 µM | 101 | 98 | – | – | – | – | -0.18
1000 nM | – | – | 101 | 95.2 | 96.2 | 109 | –
3 µM | 95 | 104 | – | – | – | – | 0.12
10000 nM | – | – | 94.1 | 65.2 | 57.6 | 104 | –
10 µM | 42 | 82 | – | – | – | – | 0.6
30 µM | 16 | 22 | – | – | – | – | 0.36

Conditions | drug sensitivity score | relative viability EC50 [µM]
Calu-3 [5] | – | > 10
Calu-3 [10] | 0 | –
HepG2 [11] | 2.4 | –
U2OS [9] | 2.8 | –
Vero E6 [6] | – | > 10
Vero E6 [12] | 0 | –

CC(C)C[C@H](NC(=O)[C@H](Cc1ccccc1)NC(=O)c1cnccn1)B(O)O [bortezomib]
Conditions | SARS-CoV-2 infection rate, [8] [%] | cell count, [13] [%] | cell viability, Caco-2 [14] [%] | cell viability, Calu-3 [2] [%] | cell viability, HepG2 [3] [%] | cell viability, U2OS [1] [%] | cell viability, Vero E6 [4] [%] | morphology score, [7]
1 nM | – | – | 104 | 103 | 122 | 104 | 111 | –
10 nM | – | – | 20.1 | 26.4 | 59.1 | 63.9 | 66.4 | –
100 nM | – | – | 4.1 | 4.4 | 1.8 | -0.1 | 3 | –
0.3 µM | 45 | 57 | – | – | – | – | – | 0.26
1000 nM | – | – | 5.9 | 5 | -0.2 | -0.4 | 0.2 | –
3 µM | 21 | 30 | – | – | – | – | – | 0.33
10000 nM | – | – | 6.2 | 2.4 | -0.3 | -0.4 | 0.1 | –
10 µM | 16 | 27 | – | – | – | – | – | 0.29
30 µM | 23 | 24 | – | – | – | – | – | 0.23

Conditions | drug sensitivity score | relative viability EC50 [µM]
Caco-2 [16] | – | 0.0053
Caco-2 [18] | 38.6 | –
Calu-3 [5] | – | 0.0064
Calu-3 [10] | 38.3 | –
HepG2 [11] | 35.9 | –
HepG2 [17] | – | 0.0116
U2OS [9] | 35.5 | –
U2OS [15] | – | 0.0126
Vero E6 [6] | – | 0.0132
Vero E6 [12] | 35.2 | –

NC(=O)CN1CC(O)CC1=O (stereo not given) [oxiracetam]
cell viability [%]
Conditions | Caco-2 [14] | Calu-3 [2] | HepG2 [3] | U2OS [1] | Vero E6 [4]
1 nM | 98.9 | 101 | 92.6 | 107 | 98.1
10 nM | 111 | 98 | 101 | 103 | 101
100 nM | 94.8 | 102 | 95.8 | 97.5 | 104
1000 nM | 99.1 | 93.9 | 104 | 100 | 99.2
10000 nM | 101 | 102 | 94.8 | 98.9 | 97.1

Conditions | drug sensitivity score | relative viability EC50 [µM]
Caco-2 [16] | – | > 10
Caco-2 [18] | 0 | –
Calu-3 [5] | – | > 10
Calu-3 [10] | 0 | –
HepG2 [11] | 0 | –
HepG2 [17] | – | > 10
U2OS [9] | 0 | –
U2OS [15] | – | > 10
Vero E6 [6] | – | > 10
Vero E6 [12] | 0 | –

C[N+](C)(C)CC#CCN1CCCC1=O [oxotremorine-M]
cell viability [%]
Conditions | Caco-2 [14] | Calu-3 [2] | HepG2 [3] | U2OS [1] | Vero E6 [4]
1 nM | 102 | 94.9 | 92 | 102 | 94.5
10 nM | 104 | 98.3 | 108 | 105 | 93.5
100 nM | 93.7 | 91 | 92 | 97.5 | 93.5
1000 nM | 107 | 102 | 102 | 102 | 96
10000 nM | 98.6 | 102 | 99.1 | 99.5 | 95.7

Conditions | drug sensitivity score | relative viability EC50 [µM]
Caco-2 [16] | – | > 10
Caco-2 [18] | 0 | –
Calu-3 [5] | – | > 10
Calu-3 [10] | 0 | –
HepG2 [11] | 0 | –
HepG2 [17] | – | > 10
U2OS [9] | 0 | –
U2OS [15] | – | > 10
Vero E6 [6] | – | > 10
Vero E6 [12] | 0 | –

Cn1c(=O)[nH]c2ncn(C)c2c1=O [paraxanthine]
cell viability [%]
Conditions | Caco-2 [14] | Calu-3 [2] | HepG2 [3] | U2OS [1] | Vero E6 [4]
1 nM | 95.4 | 94.9 | 102 | 97.4 | 95.5
10 nM | 106 | 101 | 100 | 101 | 95.8
100 nM | 97.4 | 92.9 | 106 | 98.2 | 99.2
1000 nM | 102 | 89.8 | 103 | 100 | 93.5
10000 nM | 91.8 | 98.1 | 93.2 | 99.7 | 98.2

Conditions | drug sensitivity score | relative viability EC50 [µM]
Caco-2 [16] | – | > 10
Caco-2 [18] | 0 | –
Calu-3 [5] | – | > 10
Calu-3 [10] | 0 | –
HepG2 [11] | 0 | –
HepG2 [17] | – | > 10
U2OS [9] | 0 | –
U2OS [15] | – | > 10
Vero E6 [6] | – | > 10
Vero E6 [12] | 0 | –

FC(F)(F)C(F)(F)C(F)(F)N(C(F)(F)C(F)(F)C(F)(F)F)C(F)(F)C(F)(F)C(F)(F)F [perfluamine]
cell viability [%]
Conditions | Caco-2 [14] | Calu-3 [2] | HepG2 [3] | U2OS [1] | Vero E6 [4]
1 nM | 98 | 103 | 101 | 105 | 96.5
10 nM | 96.8 | 93.2 | 97.7 | 97 | 97.9
100 nM | 95 | 99.7 | 92.2 | 99.8 | 100
1000 nM | 88.6 | 107 | 101 | 97.1 | 103
10000 nM | 101 | 98.3 | 93.7 | 100 | 91.1

Conditions | drug sensitivity score | relative viability EC50 [µM]
Caco-2 [16] | – | > 10
Caco-2 [18] | 0 | –
Calu-3 [5] | – | > 10
Calu-3 [10] | 0 | –
HepG2 [11] | 0 | –
HepG2 [17] | – | > 10
U2OS [9] | 0 | –
U2OS [15] | – | > 10
Vero E6 [6] | – | > 10
Vero E6 [12] | 0 | –

CN1C(=O)CC(c2ccccc2)C1=O (stereo not given) [phensuximide]
cell viability [%]
Conditions | Caco-2 [14] | Calu-3 [2] | HepG2 [3] | U2OS [1] | Vero E6 [4]
1 nM | 99.3 | 100 | 108 | 96.2 | 104
10 nM | 102 | 108 | 110 | 99.8 | 103
100 nM | 97.2 | 107 | 96.4 | 100 | 99.5
1000 nM | 90.9 | 99.1 | 98.3 | 98.3 | 103
10000 nM | 103 | 103 | 98.9 | 106 | 98.3

Conditions | drug sensitivity score | relative viability EC50 [µM]
Caco-2 [16] | – | > 10
Caco-2 [18] | 0 | –
Calu-3 [5] | – | > 10
Calu-3 [10] | 0 | –
HepG2 [11] | 0 | –
HepG2 [17] | – | > 10
U2OS [9] | 0 | –
U2OS [15] | – | > 10
Vero E6 [6] | – | > 10
Vero E6 [12] | 0 | –
